Assay results: ChEMBL document CHEMBL1129576, “Nucleosides and nucleotides. 158. 1-(3-C-ethynyl-beta-D-ribo-pentofuranosyl)-cytosine, 1-(3-C-ethynyl-beta-D-ribo-pentofuranosyl)uracil, and their nucleobase analogues as new potential multifunctional antitumor nucleosides with a broad spectrum of activity” (J Med Chem, 1996)
pIC50: −log10 of the molar value.

How the values were obtained:
A-375 = assay: In vitro tumor cell growth inhibitory activity against Human melanoma cell lines. A375; assay type: functional, cell-based
A-431 = assay: In vitro tumor cell growth inhibitory activity against Human […] A431 cell lines; assay type: functional, cell-based
HCT-15 = assay: In vitro tumor cell growth inhibitory activity against HCT-15; assay type: functional, cell-based; details: Homo sapiens
HOS = assay: In vitro tumor cell growth inhibitory activity against Human osteosarcoma cell lines. HOS; assay type: functional, cell-based
HT-1080 = assay: In vitro tumor cell growth inhibitory activity against Human fibrosarcoma HT1080 cell lines.; assay type: functional, cell-based
[1] = test system: KATO III stomach cancer cell line; assay: In vitro tumor cell growth inhibitory activity of Human stomach (adenocarcinoma) cell lines. KATO-III; assay type: functional, cell-based
KK-47 cell line = assay: In vitro tumor cell growth inhibitory activity against Human bladder carcinoma cell lines. kK-47; assay type: functional, cell-based
KB [2] = assay: In vitro tumor cell growth inhibitory activity against human nasopharyngeal KB cell lines; assay type: functional, cell-based
L1210 = assay: In vitro tumor cell growth inhibitory activity against mouse leukemia L1210 cell lines.; assay type: functional, cell-based
MDA-MB-231 = assay: In vitro tumor cell growth inhibitory activity against Human breast (adenocarcinoma) cell lines. […]; assay type: functional, cell-based
MKN-28 = assay: In vitro tumor cell growth inhibitory activity against Human stomach (adenocarcinoma) cell lines. MKN-28; assay type: functional, cell-based
MCF7 = assay: In vitro tumor cell growth inhibitory activity against Human breast (adenocarcinoma) cell lines. MCF-7; assay type: functional, cell-based
MG-63 = assay: In vitro tumor cell growth inhibitory activity against Human osteosarcoma cell lines MG-63.; assay type: functional, cell-based
Lu-65 = assay: In vitro tumor cell growth inhibitory activity against Human lung large-cell carcinoma Lu-65 cell lines.; assay type: functional, cell-based
Mus musculus [3] = assay: In vivo inhibitory activity against H-81 tumor xenograft of stomach in nude mice at a concentration of 2 mg/kg for 10 days; assay type: functional
Mus musculus [4] = assay: In vivo inhibitory activity against Hucc-T1 cells tumor xenograft of bile duct in nude mice at a concentration of 2 mg/kg for 10 days; assay type: functional
Mus musculus [5] = assay: In vivo inhibitory activity against JRC-11 cell tumor xenograft of renal in nude mice at a concentration of 2 mg/kg for 10 days; assay type: functional
Mus musculus [6] = assay: In vivo inhibitory activity against KM12C tumor xenograft of […] in nude mice at a concentration of 2 mg/kg for 10 days; assay type: functional
Mus musculus [7] = assay: In vivo inhibitory activity against AZ-521 tumor xenograft of stomach in nude mice at a concentration of 2 mg/kg for 10 days; assay type: functional
Mus musculus [8] = assay: In vivo inhibitory activity against BxPC-3 tumor xenograft of pancreas in nude mice at a concentration of 2 mg/kg for 10 days; assay type: functional
Mus musculus [9] = assay: In vivo inhibitory activity against CO-3 tumor xenograft of […] in nude mice at a concentration of 2 mg/kg for 10 days; assay type: functional
Mus musculus [10] = assay: In vivo inhibitory activity against DLD-1 tumor xenograft of […] in nude mice at a concentration of 2 mg/kg for 10 days; assay type: functional
Mus musculus [11] = assay: In vivo inhibitory activity against H-31 cells tumor xenograft of breast in nude mice at a concentration of 2 mg/kg for 10 days; assay type: functional
Mus musculus [12] = assay: In vivo inhibitory activity against NUGC-3 tumor xenograft of stomach in nude mice at a concentration of 2 mg/kg for 10 days; assay type: functional
Mus musculus [13] = assay: In vivo inhibitory activity against PAN-12 tumor xenograft of pancreas in nude mice at a concentration of 2 mg/kg for 10 days; assay type: functional
NAKAJIMA = assay: In vitro tumor cell growth inhibitory activity against Human stomach (adenocarcinoma) cell lines. h) NAKAJIMA; assay type: functional, cell-based
NCI-H417 = assay: In vitro tumor cell growth inhibitory activity against Human lung small-cell carcinoma cell NCI-H-417; assay type: functional, cell-based
NUGC-4 = assay: In vitro tumor cell growth inhibitory activity of Human stomach (adenocarcinoma) cell lines. NUGC-4; assay type: functional, cell-based
PC10 = assay: In vitro tumor cell growth inhibitory activity against Human lung (adenocarcinoma) cell lines PC-10; assay type: functional, cell-based
PC-8 = assay: In vitro tumor cell growth inhibitory activity against Human lung (adenocarcinoma) cell lines. PC-8; assay type: functional, cell-based
PC-9 = assay: In vitro tumor cell growth inhibitory activity against Human lung (adenocarcinoma) cell lines PC-9; assay type: functional, cell-based
[14] = In vitro tumor cell growth inhibitory activity against Human lung squamous-cell carcinoma cell lines QG-95; assay type: functional
QG-56 = assay: In vitro tumor cell growth inhibitory activity against Human lung squamous-cell carcinoma cell linesQG-56; assay type: functional, cell-based
QG-90 = assay: In vitro tumor cell growth inhibitory activity against Human lung small-cell carcinoma cell lines. QG-90; assay type: functional, cell-based
QG-96 = assay: In vitro tumor cell growth inhibitory activity against Human lung small-cell carcinoma cellb) QG-96; assay type: functional, cell-based
SW48 = assay: In vitro tumor cell growth inhibitory activity against Human colon (adenocarcinoma) cell lines. SW-48; assay type: functional, cell-based
SW480 = assay: In vitro tumor cell growth inhibitory activity against Human colon (adenocarcinoma) cell lines. SW-480; assay type: functional, cell-based
SK-MEL-28 = assay: In vitro tumor cell growth inhibitory activity against Human melanoma cell lines. SK-MEL-28; assay type: functional, cell-based
ST-KM-1 = assay: In vitro tumor cell growth inhibitory activity against Human stomach (adenocarcinoma) cell linesST-KM; assay type: functional, cell-based
T-24 = assay: In vitro tumor cell growth inhibitory activity against Human bladder carcinoma cell lines. T24; assay type: functional, cell-based
fLS = assay: In vitro tumor cell growth inhibitory activity of Human stomach (adenocarcinoma) cell lines. fLS; assay type: functional, cell-based
YMB-1-E = assay: In vitro tumor cell growth inhibitory activity against Human breast (adenocarcinoma) cell lines YMB-1-E.; assay type: functional, cell-based
KB [15] = assay: In vitro tumor cell growth inhibitory activity against Human melanoma cell lines. KB; assay type: functional, cell-based
PANC-1 = assay: In vitro tumor cell growth inhibitory activity against Human pancreas (adenocarcinoma) cell lines. PANC-1; assay type: functional, cell-based
NCI-H82 (Homo sapiens) = assay: In vitro tumor cell growth inhibitory activity against Human lung small-cell carcinoma cellc) NCI-H-82
[16] = test system: MIA PaCa-2 (Homo sapiens); assay: In vitro tumor cell growth inhibitory activity against Human pancreas (adenocarcinoma) cell Mia-PaCa-2
[17] = In vitro tumor cell growth inhibitory activity against Human stomach (adenocarcinoma) cell lines STSA-1
MKN-45 (Homo sapiens) = assay: In vitro tumor cell growth inhibitory activity against Human stomach (adenocarcinoma) cell lines. MKN-45

In the case of `C#C[C@]1(O)[C@@H](CO)O[C@@H](n2ccc(=O)[nH]c2=O)[C@@H]1O`, the pIC50 (A-375) was 7.68, the pIC50 (A-431) was 6.54 and the pIC50 (HCT-15) was 7.12. It also gave a pIC50 (HOS) of 5.74, a pIC50 (HT-1080) of 6.80 and a pIC50 [1] of 7.51. For the same molecule, the pIC50 (KK-47 cell line) was 7.05, the pIC50 (KB [2]) was 7.54 and the pIC50 (L1210) was 6.89. For the same molecule, the pIC50 (MDA-MB-231) was less than 5.72, the pIC50 (MKN-28) was 7.19 and the pIC50 (MCF7) was 6.70. The pIC50 (MG-63) was less than 5.72, the pIC50 (Lu-65) was 7.05 and the Inhibition ratio (Mus musculus [3]) was 92%. For the same molecule, the Inhibition ratio (Mus musculus [4]) was 64%, the Inhibition ratio (Mus musculus [5]) was 75% and the Inhibition ratio (Mus musculus [6]) was 81%. It also gave an Inhibition ratio (Mus musculus [7]) of 81%, an Inhibition ratio (Mus musculus [8]) of 35% and an Inhibition ratio (Mus musculus [9]) of 90%. The Inhibition ratio (Mus musculus [10]) was 73%, the Inhibition ratio (Mus musculus [11]) was 82% and the Inhibition ratio (Mus musculus [12]) was 54%. The Inhibition ratio (Mus musculus [13]) was 81%, the pIC50 (NAKAJIMA) was 6.11 and the pIC50 (NCI-H417) was 6.96. For the same molecule, the pIC50 (NUGC-4) was 6.66, the pIC50 (PC10) was less than 5.72 and the pIC50 (PC-8) was 6.48. The pIC50 (PC-9) was 6.72, the pIC50 [14] was 6.55 and the pIC50 (QG-56) was 6.82. The pIC50 (QG-90) was 6.00, the pIC50 (QG-96) was 6.42 and the pIC50 (SW48) was less than 5.72. It also gave a pIC50 (SW480) of 6.47, a pIC50 (SK-MEL-28) of 7.07 and a pIC50 (ST-KM-1) of 7.07. The pIC50 (T-24) was 6.68, the pIC50 (fLS) was 6.64 and the pIC50 (YMB-1-E) was less than 5.72. For the same molecule, the pIC50 (KB [15]) was 7.54, the pIC50 (PANC-1) was less than 5.72 and the pIC50 (NCI-H82 (Homo sapiens)) was 6.64. It also gave a pIC50 [16] of 7.27, a pIC50 [17] of 5.72 and a pIC50 (MKN-45 (Homo sapiens)) of 7.28.
